Results published in patent US11236357B2, “Methods of obtaining androecious cucurbit plants” (INSTITUT NATIONAL DE LA RECHERCHE AGRONOMIQUE (INRA), priority 2012, dated 2022).

What was measured:
[1] = biological target: Cucumis melo ACS8 variant Cmacs8_L45F (L45→F), SEQ ID No 15 (Cucumis melo, UniProt A0A0S2C3P7, L45F); type: biochemical; details: PLP 5 μm; pH 8.5, 25° C.
Experimental: (§1) Dosing the Transforming Activity of Methionine S-adenosyl into Aminocyclopropane Carboxylate by the 1-aminocyclopropane-1-carboxylate Synthase 8 (ACS8)
(§2) The enzymatic activity of the ACS8 is measured in vitro by following, by 265-nm spectrophotometry, the formation of 5′-methylthioadenosine (MTA) after involving methionine S-adenosyl, deaminase and different PLP concentrations (pyridoxal 5′-phosphate).
The bacterial strain Escherichia coli BL21(DE3)pLYSS is used for the expression of the enzyme. The cloning vector used is the plasmid pET15b (NOVAGEN) which carries the promoter T7 and comprises resistance to ampicillin. S-adenosyl Methionine (SAM), Pyridoxal 5′phosphate (PLP) and 5′Adenylic Acid Deaminase of Aspergillus (deaminase) are available from the SIGMA company. […]
Due to the presence of a Histidine tag associated with each of the ACS8, the latter are purified by using a nickel column (Ni-IDA 15 ml) previously balanced with TRIS at PH8 and NaCl (500 mM). After passing the solution containing recombinant ACS8 to be purified, the column is then washed with TRIS at PH8 (50 mM) and NaCl (500 mM) added with imidazole (10 mM) until no protein can be detected at the output any longer. […]

[2] = biological target: Cucumis melo ACS8 (1-aminocyclopropane-1-carboxylate synthase 8), CmACS8, wild, SEQ ID No 12 (Cucumis melo, UniProt A0A0S2C3P7); test: Transforming activity of methionine S-adenosyl into aminocyclopropane carboxylate (MTA formation at 265 nm); type: biochemical; details: pH 8.5, 25° C.
Experimental: as §1, §2
(§3) The bacterial strain Escherichia coli BL21(DE3)pLYSS is used for the expression of the enzyme. The cloning vector used is the plasmid pET15b (NOVAGEN) which carries the promoter T7 and comprises resistance to ampicillin. S-adenosyl Methionine (SAM), Pyridoxal 5′phosphate (PLP) and 5′Adenylic Acid Deaminase of Aspergillus (deaminase) are available from the SIGMA company.
(§4) These bacteria Escherichia coli BL21(DE3)pLYSS transformed with the construct carrying the 1-aminocyclopropane-1-carboxylate synthase 8 (ACS8) are incubated in 25 ml LURIA-BERTANI medium (tryptone 10 g/L, yeast extract 5 g/L, NaCl 10 g/L) added with ampicillin and chloramphenicol (50 μg/ml each) overnight at 37° C. This pre-culture is used to inoculate 2 litres of the same medium added with ampicillin (50 μg/ml) and the cells are cultivated at 37° C. in a stirred incubator (180 rpm) up to 0.6 Optical Density (DO=600 nm). IPTG is added (0.5 mM) so as to induce the protein expression during a new 5-hour culture phase at 25° C. Cells are centrifuged and kept overnight at −45° C. Cells are then re-suspended in 15 ml TrisNaCl (50 mM, pH7.9, 500 mM, respectively) then subjected to ice sonication in the presence of a protease inhibitor (phenylmethanesulfonyl fluoride), leupeptin, pepstatin and aprotinin, 10 μg/ml each). The cellular debris are removed during a new centrifugation step at 13,000 g during 15 minutes and the supernatant is immediately used for enzymatic purification.
(§5) Due to the presence of a Histidine tag associated with each of the ACS8, the latter are purified by using a nickel column (Ni-IDA 15 ml) previously balanced with TRIS at PH8 and NaCl (500 mM). After passing the solution containing recombinant ACS8 to be purified, the column is then washed with TRIS at PH8 (50 mM) and NaCl (500 mM) added with imidazole (10 mM) until no protein can be detected at the output any longer. The ACS8 are then eluted with the same buffer solution added with imidazole at 100 mM, then dialysed (KPhos 50 mM á PH8.5) before concentration (MILLIPORE AMICON ULTRA DEVICE, 5000 MWC0). The concentrated fraction (20 mg/ml) of ACS8 is aliquoted and stored with glycerol at −45° C. The purification of protein is followed by capillary electrophoresis (EXPERION DEVICE—BIO RAD) with a PRO260 chip.

[3] = biological target: Cucumis melo ACS8 variant Cmacs8_G72E (G72E), SEQ ID not listed (Cucumis melo, UniProt A0A0S2C3P7, G72E); test: as above; type: biochemical; details: pH 8.5, 25° C.
Experimental: as §1, §2, §3, §4, §5

[4] = biological target: Cucumis melo ACS8 variant Cmacs8_S295F (S295→F), SEQ ID No 18 (Cucumis melo, UniProt A0A0S2C3P7, S295F); test: as above; type: biochemical; details: pH 8.5, 25° C.
Experimental: as §1, §2, §3, §4, §5

[5] = biological target: T1, Cucumis sativus ACS8 (1-aminocyclopropane-1-carboxylate synthase 8), CsACS8, wild, SEQ ID No 3 (Cucumis sativus, UniProt A0A0A0LKW1); test: as above; type: biochemical; details: pH 8.5, 25° C.
T1 construct: N-terminus MASLSSKASHDSHGQNSS
T1 sequence (A0A0A0LKW1 1-440): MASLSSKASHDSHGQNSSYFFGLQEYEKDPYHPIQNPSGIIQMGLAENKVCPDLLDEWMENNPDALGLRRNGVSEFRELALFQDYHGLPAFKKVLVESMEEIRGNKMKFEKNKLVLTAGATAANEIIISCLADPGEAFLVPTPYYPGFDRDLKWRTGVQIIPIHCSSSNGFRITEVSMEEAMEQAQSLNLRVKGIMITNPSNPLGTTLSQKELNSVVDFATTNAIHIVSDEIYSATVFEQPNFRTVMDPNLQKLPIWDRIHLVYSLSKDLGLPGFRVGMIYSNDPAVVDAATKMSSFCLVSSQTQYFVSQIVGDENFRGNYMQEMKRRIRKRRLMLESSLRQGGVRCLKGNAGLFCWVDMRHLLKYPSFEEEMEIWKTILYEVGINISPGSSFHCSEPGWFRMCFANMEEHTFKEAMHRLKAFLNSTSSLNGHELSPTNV
Experimental: as §1, §2, §3, §4, §5

[6] = test system: androecious plants (cucurbitaceae); test: Induction of female flowers in androecious plants by ethrel; type: in vivo; details: androecious plants treated with ethrel
Excerpt: The inventors wished to study the transmission of the androecious phenotype from one generation to the other. However, due to the nature of the plants, it is obviously impossible to fecundate an androecious plant with itself or another androecious plant.
The inventors have then treated the plants with ethrel, a growth regulator known for inducing female flowers in cucurbitaceae. […] The seeds derived from this fruit have been planted to produce plants which phenotype is androecious: the androecious phenotype of the present invention is thus heritable.

monoecious melon plants = details: monoecious plants treated by ethrel; prior art; cited from earlier work

Chain of Cucumis melo ACS8 variant Cmacs8_G72E (G72E), SEQ ID not listed (A0A0S2C3P7 entry or part of it G72E): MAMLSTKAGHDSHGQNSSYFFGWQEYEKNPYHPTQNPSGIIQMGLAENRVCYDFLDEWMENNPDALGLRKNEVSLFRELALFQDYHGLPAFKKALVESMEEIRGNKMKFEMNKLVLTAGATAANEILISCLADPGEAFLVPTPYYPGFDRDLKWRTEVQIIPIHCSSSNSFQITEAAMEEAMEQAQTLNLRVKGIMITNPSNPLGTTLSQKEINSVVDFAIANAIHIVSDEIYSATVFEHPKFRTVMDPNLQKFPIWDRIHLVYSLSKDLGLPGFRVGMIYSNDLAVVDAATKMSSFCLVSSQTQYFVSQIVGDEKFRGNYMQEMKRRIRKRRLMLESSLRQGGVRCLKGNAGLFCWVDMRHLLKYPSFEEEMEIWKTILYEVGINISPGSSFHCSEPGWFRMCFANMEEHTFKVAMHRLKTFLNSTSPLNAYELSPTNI
Chain of Cucumis melo ACS8 variant Cmacs8_S295F (S295→F), SEQ ID No 18 (A0A0S2C3P7 entry or part of it S295F): as the sequence (A0A0S2C3P7 entry or part of it G72E) above, with E72G, S295F counted along it
Chain of Cucumis melo ACS8 (1-aminocyclopropane-1-carboxylate synthase 8), CmACS8, wild, SEQ ID No 12 (A0A0S2C3P7 1-440): as the sequence (A0A0S2C3P7 entry or part of it G72E) above, with E72G counted along it
Chain of Cucumis melo ACS8 variant Cmacs8_L45F (L45→F), SEQ ID No 15 (A0A0S2C3P7 entry or part of it L45F): as the sequence (A0A0S2C3P7 entry or part of it G72E) above, with L45F, E72G counted along it

Row | Structure (SMILES) | Km [1] [µM] | Km ([2]; PLP 5 μm) [µM] | Km ([2]; PLP 100 μm) [µM] | Km ([3]; PLP 5 μm) [µM] | Km ([3]; PLP 100 μm) [µM] | Km ([4]; PLP 5 μm) [µM] | Km ([4]; PLP 100 μm) [µM] | Km ([5]; PLP 5 μm) [µM] | Km ([5]; PLP 100 μm) [µM] | production of female flowers after treatment [6] | effect on male flowers (monoecious melon plants)
1 | C[S+](CC[C@H](N)C(=O)[O-])C[C@H]1O[C@@H](n2cnc3c(N)ncnc32)[C@H](O)[C@@H]1O (some centres unmarked) [S-adenosyl Methionine] | 23 ± 4 | 20 ± 5 | 20 ± 5 | 17 ± 5 | 15 ± 5 | 16 ± 5 | 15 ± 5 | 20 ± 6 | 25 ± 6 |  | 
2 | O=P(O)(O)CCCl [ethrel] |  |  |  |  |  |  |  |  |  | briefly produced female flowers | temporary disappearance of male flowers
